Data as given in patent US9573967B2, “N-heterocyclic carbene gold complexes with anticancer properties and methods of use thereof” (KING FAHD UNIVERSITY OF PETROLEUM AND MINERALS, priority 2015, dated 2017).

Assays:
Type in all cases: cell-based
[1] = tested on: HeLa (human cervical cancer) cell line; experiment: In vitro cytotoxicity, MTT assay, HeLa; details: 24 h incubation with complex, read-out: IC50 values against HeLa cancer cell line
Experimental: (§1) The in vitro cytotoxicity tests were carried out for the gold(I) precursor, labeled as complex 0 and the three synthesized complexes labeled as complex 1, 2 and 3 and compared with cisplatin (standard classical anticancer drug) against three human cancer cell lines, HCT15, HeLa and A549 using MTT assay. The dose dependent cytotoxic effect was obtained by the stipulated increase in concentrations of cisplatin and gold complexes 0-3 against the fixed number of human cancer cells. The IC50 concentration of cisplatin and complexes 0-3 for different human cancer cell lines was obtained from a curve between compound concentration and percentage viability of cells (FIGS. 5-10, Table 6).
(§2) In phase contrast micrographs, a decreasing cell density and deformed cellular morphology could be observed with increasing concentration of complexes 0-3 (FIGS. 11-13). […] The IC50 concentrations of gold complexes were calculated from a separate curve between complex concentration and % viability of cells plotted in Microsoft Excel 2007 (graphs not shown) using MTT assay data and explained by logarithmic regression equations (equations not shown).
(§3) The metal precursor (complex 0) and the three synthesized compounds 1-3 were evaluated for their in vitro cytotoxic activity against HCT15 (human cancer), HeLa (human cervical cancer) and A549 (human lung carcinoma) cell lines. […]

[2] = tested on: HCT15 (human cancer) cell line; experiment: In vitro cytotoxicity, MTT assay, HCT15; details: for IC50: MTT assay, 24 h incubation with complex, read-out: IC50 values against HCT15 cancer cell line; for IC50 against HCT15 compared with cisplatin: in words
Experimental: as §1
In phase contrast micrographs, a decreasing cell density and deformed cellular morphology could be observed with increasing concentration of complexes 0-3 (FIGS. 11-13). The dose dependent decrease in cell density was further supported by assessment of decreasing percent cell viability in MTT assay (FIGS. 5-10). The IC50 concentrations of gold complexes were calculated from a separate curve between complex concentration and % viability of cells plotted in Microsoft Excel 2007 (graphs not shown) using MTT assay data and explained by logarithmic regression equations (equations not shown).
The metal precursor (complex 0) and the three synthesized compounds 1-3 were evaluated for their in vitro cytotoxic activity against HCT15 (human cancer), HeLa (human cervical cancer) and A549 (human lung carcinoma) cell lines. The cells were seeded at 4×10^3 cells/well in 100 μL DMEM (Dulbecco's Modified Eagle's Medium) containing 10%. FBS (Fetal Bovine Serum) in 96-wells tissue culture plate and incubated for 72 h at 37° C., 5% CO2 in air and 90% relative humidity in CO2 incubator. After incubation, 100 μL of 50, 25, 12.5 and 6.25 μg/mL solutions of complexes (0-3), prepared in DMEM, were added to cells and the cultures were incubated for 24 h. The medium of wells was discarded and 100 μL DMEM containing MTT (3-(4,5-dimethylthiazol-2-yl)-2,5-diphenyltetrazolium bromide) (5 mg/mL) was added to the wells and incubated in CO2 incubator at 37° C. in dark for 4 h. After incubation, a purple colored formazan (artificial chromogenic dye, product of the reduction of water insoluble tetrazolium salts e.g., MMT by dehydrogenases and reductases) in the cells is produced and appeared as dark crystals in the bottom of the wells. The medium of culture was discarded from each well carefully to avoid disruption of monolayer and 100 μl of dimethyl sulfoxide (DMSO) was added in each well. […] The absorbance of the 96-wells plate was taken at 570 nm with Labsystems Multiskan EX-Enzyme-linked immunosorbent assay (EX-ELISA) reader against a reagent blank.

[3] = tested on: A549 (human lung carcinoma) cell line; experiment: In vitro cytotoxicity, MTT assay, A549; details: 24 h incubation with complex, read-out: IC50 values against A549 cancer cell line
Experimental: as §1, §2, §3

1,3-Bis(2,6-di-isopropylphenyl)imidazol-2-ylidenegold(I)chloride [Complex 0]
IC50 [1]: 172 µM | IC50 [2]: 122 µM | IC50 [3]: 180 µM

N.N.[Cl][Pt][Cl] [Cisplatin, cisplatin]
IC50 [2]: 29.5 µM

CCN(CC)C(=S)[S][Au][CH]1N(c2c(C(C)C)cccc2C(C)C)C=CN1c1c(C(C)C)cccc1C(C)C [Complex 2, [Au(Ipr)(S2CN(C2H5)2)]]
IC50 against HCT15 compared with cisplatin [2]: moderate potency but better than cisplatin

CC(C)c1cccc(C(C)C)c1N1C=CN(c2c(C(C)C)cccc2C(C)C)[CH]1[Au][S]C(=S)N(Cc1ccccc1)Cc1ccccc1 [Complex 3, [Au(Ipr)(S2CN(C7H7)2)]]
IC50 against HCT15 compared with cisplatin [2]: moderate potency but better than cisplatin
